The source of these data is paper PMC10780766, “From Bench to Bedside: Patient-Oriented Radiopharmaceutical Development in Nuclear Medicine Based on the Example of [^89Zr]Zr-PSMA-DFO” (Molecules, 2023).

Like-named read-outs stand apart in the source and are kept apart here.

Data set [1] has as its system PSMA binding sites (PSMA-positive LNCaP cell lines). Also on record: method as in PMID 34370181. Conditions: LNCaP cells; cited from earlier work.
Data set [2] relates to PSMA (prostate-specific membrane antigen) on prostate cancer cells. Also on record: method as in PMID 34370181. Conditions: cited from earlier work.
Data set [3] shares this test system. On the set-up: method as in PMID 34370181. The conditions noted are these: cited from earlier work. This is another data set of the same source.
The next data set deals with LNCaP tumor xenograft. Also on record: method as in PMID 34370181. The conditions noted are these: LNCaP tumor xenografts, n = 5, cited from earlier work.
On the set-up of data set [4]: method as in PMID 34370181. The conditions noted are these: up to 7 days at 37 °C; cited from earlier work.
In a further data set the test system is PSMA-positive lesions. On the set-up: method as in PMID 34326129. Conditions: cited from earlier work.
A further data set concerns LNCaP tumors. Also on record: method as in PMID 34370181. The conditions noted are these: cited from earlier work.
Data set [5] is described as follows: Storage of iron-free precursor in aqueous solution, then labeling, cell binding and internalization. It counts as physicochemical. Conditions: storage at 5 °C in an aqueous solution for 6 months. The source says:
Such synthesis modules have been specifically designed to enable the versatile and efficient routine production of various radiopharmaceuticals while adhering to GMP requirements. The concept of disposable cassettes pursued in this approach allows the user to label different radionuclides on the same synthesis device without the risk of cross-contamination. The disposable cassettes include all necessary vessels, reagents, and purification columns. The automated process concludes with a final sterile filtration, including a filter integrity test. Iron removal should therefore take place before the actual labeling process. We wanted to verify whether it is possible to establish a stock of an iron-free PSMA-DFO precursor, stored in an aqueous solution at 4 °C in the refrigerator, and to determine its shelf life. This was done by investigating whether the iron-free precursor can be labeled with zirconium-89 after several months of storage without compromising the yield, cell binding, and internalization.

A word on the Kd: it is the concentration at which binding is half-saturated. Consider `COc1nc(F)ccc1C(=O)NCCCCC(NC(=O)NC(CCC(=O)O)C(=O)O)C(=O)O` (stereo not shown) [[^18F]F-JK-PSMA 7], for which the Kd in data set [1] was 5.07 ± 0.45 nM.
As for `COc1nc([18F])ccc1C(=O)NCCCCC(NC(=O)NC(CCC(=O)O)C(=O)O)C(=O)O` (stereo not shown) [[^18F]F-JK-PSMA 7], the “Specific binding as a percentage of the total cellular activity” value (“Specific binding as a percentage” below) is listed as 23.8 ± 0.6% in data set [2] (0.5 h); 32.6 ± 0.4% in data set [2] (1 h); 38.8 ± 1.3% in data set [2] (2 h); 45.2 ± 1.9% in data set [2] (3 h); 45.8 ± 0.4% in data set [2] (5 h). Moreover, the “Specific internalization as a percentage of the total cellular activity” value (from here on “Specific internalization as a percentage”) is 4.7 ± 0.4% in data set [3] (0.5 h); 11.1 ± 0.7% in data set [3] (1 h); 17.2 ± 1.3% in data set [3] (2 h); 20.8 ± 0.6% in data set [3] (3 h); 21.8 ± 0.3% in data set [3] (5 h). Further, in the data set on LNCaP tumor xenograft (4 h after i.v. injection), the tumor/blood ratio is given as 175 ± 30. Moreover, the tumor/muscle ratio in the data set on LNCaP tumor xenograft (4 h after i.v. injection) was 114 ± 14. Besides, the Bmax in data set [1] is given as 2702 ± 61 fmol/10^6 Cells.
In the case of `O=C([O-])CN(CCN(CC(=O)[O-])Cc1cc(CCC(=O)NCCCCCC(=O)NCCCC[C@H](NC(=O)N[C@@H](CCC(=O)O)C(=O)O)C(=O)O)ccc1[O-])Cc1cc(CCC(=O)O)ccc1[O-].[68Ga+3].[OH3+]` [[^68Ga]Ga-PSMA 11], the “Specific binding as a percentage” value in data set [2] (0.5 h) is recorded as 27.7 ± 0.7%; in data set [2] (1 h), 35.3 ± 3.1%; in data set [2] (2 h) it was 42.0 ± 1.2%; in data set [2] (3 h), 46.3 ± 2.1%; in data set [2] (5 h) it was 48.3 ± 1.2%. In addition, the “Specific internalization as a percentage” value in data set [3] (0.5 h) was 8.0 ± 0.4%; in data set [3] (1 h), 14.0 ± 1.9%; in data set [3] (2 h), 20.3 ± 1.5%; in data set [3] (3 h) it was 23.3 ± 0.8%; in data set [3] (5 h), 27.4 ± 1.6%. The tumor/blood ratio in the data set on LNCaP tumor xenograft (4 h after i.v. injection) is 112 ± 57. In addition, the tumor/muscle ratio with LNCaP tumor xenograft (4 h after i.v. injection) is 58 ± 36. The Bmax in data set [1] is 1746 ± 53 fmol/10^6 Cells. Also, in data set [1], the Kd is 5.15 ± 0.6 nM.
For `CC(=O)N([O-])CCCCCNC(=O)CCC(=O)N([O-])CCCCCNC(=O)CCC(=O)N([O-])CCCCCNC(=O)CCC(=O)NCC1CCC(C(=O)NC(Cc2ccc3ccccc3c2)C(=O)NCCCCC(NC(=O)NC(CCC(=O)O)C(=O)O)C(=O)O)CC1.[89Zr+4]` (stereo not shown) [[^89Zr]Zr-PSMA-DFO], the “Specific binding as a percentage” value is given as 29.1 ± 2.1% in data set [2] (0.5 h); 38.5 ± 2.3% in data set [2] (1 h); 46.5 ± 1.3% in data set [2] (2 h); 48.8 ± 1.0% in data set [2] (3 h); 49.4 ± 1.3% in data set [2] (5 h). Besides, in data set [4], the “Stability in human serum” value is listed as “very high stability”. For the same compound, the “Stability in phosphate-buffered saline (PBS)” value in data set [4] is given as “very high stability”. For the same compound, the “Detected lesions whose validity was supported (histology, follow-up after radiation therapy, additional imaging)” value in the data set with PSMA-positive lesions is given as 14 out of 15. Also, the “Level of radioactivity in the 15 lesions (SUVmax) versus the original PET scans” value in the data set with PSMA-positive lesions is on record as “significantly higher”. In addition, the “Number of PSMA-positive lesions detected” value in the data set with PSMA-positive lesions (in 8 out of 14 patients) is 15. Also, in the data set on PSMA-positive lesions (patients with BCR and initially negative PET scans using the usual tracers), the “Patients in whom PSMA-positive lesions were detected” value is 8 out of 14. For the same compound, the “Specific internalization as a percentage” value in data set [3] (0.5 h) is reported as 9.5 ± 0.6%; in data set [3] (1 h), 15.3 ± 1.0%; in data set [3] (2 h), 22.3 ± 1.0%; in data set [3] (3 h) it was 24.4 ± 0.6%; in data set [3] (5 h), 30.4 ± 1.3%. Besides, in the data set on LNCaP tumor xenograft (24 h after i.v. injection), the tumor/blood ratio is 309 ± 89. In the data set with LNCaP tumor xenograft (24 h after i.v. injection), the tumor/muscle ratio is 450 ± 38. For the same compound, the Bmax in data set [1] is given as 1428 ± 42 fmol/10^6 Cells. Besides, the Kd in data set [1] is 4.97 ± 0.57 nM. In addition, the “Tumor visualization at later time points” value with LNCaP tumors (PET scans up to 48 h after injection) is recorded as “clear tumor visualization”. Further, in the data set with LNCaP tumors (after 48 h, mice with LNCaP tumor xenografts), the “Radioactive background radiation in the kidneys and bladder” value is reported as “minimal”. Further, the “Ability to visualize tumors compared with [68Ga]Ga-PSMA-11 or [18F]F-JK-PSMA-7” value in the data set with LNCaP tumors (early time points (1 h after injection)) is recorded as “similar”.
Consider `CC(=O)N(O)CCCCCNC(=O)CCC(=O)N(O)CCCCCNC(=O)CCC(=O)N(O)CCCCCNC(=O)CCC(=O)NCC1CCC(C(=O)NC(Cc2ccc3ccccc3c2)C(=O)NCCCCC(NC(=O)NC(CCC(=O)O)C(=O)O)C(=O)O)CC1` (stereo not shown) [N-sucDFO-PSMA], for which the “Chemical reactivity, specific binding and internalization after storage” value in data set [5] is recorded as “remained unaffected”.
For the compound [^177Lu]Lu-PSMA 617, the “Specific binding as a percentage” value is reported as 16.0 ± 0.2% in data set [2] (0.5 h); 19.7 ± 1.1% in data set [2] (1 h); 30.4 ± 1.0% in data set [2] (2 h); 35.5 ± 1.0% in data set [2] (3 h); 40.7 ± 2.4% in data set [2] (5 h). The “Specific internalization as a percentage” value is listed as 4.1 ± 0.1% in data set [3] (0.5 h); 6.7 ± 0.1% in data set [3] (1 h); 12.8 ± 1.3% in data set [3] (2 h); 16.9 ± 0.2% in data set [3] (3 h); 22.9 ± 0.9% in data set [3] (5 h). The Bmax in data set [1] was 2021 ± 66 fmol/10^6 Cells. Further, the Kd in data set [1] is 5.81 ± 0.71 nM.
